Measured values taken from patent publication US10329295B2, “Pyrrolotriazine inhibitors of IRAK4 activity” (MERCK SHARP & DOHME CORP., priority 2015, dated 2019).
Structures can show the parent of a compound that is named as a salt.

The molecules below were run against GST tagged IRAK4 (Homo sapiens (Human), UniProt Q9NWZ3) (assay: IRAK4 Kinase Assay (IMAP fluorescence polarization)). Conditions: 0.5 nM GST tagged IRAK4, 100 μM ATP, 30 minutes at 25° C.
Assay type: biochemical
Summary of the method: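 Reactions contained 0.5 nM GST-IRAK4, 100 nM fluorescent peptide substrate and 100 μM ATP in 10 mM Tris-HCl pH 7.2 with 1 mM MgCl2, and were started with ATP. After 30 minutes at 25° C they were stopped with IMAP reagent. Substrate phosphorylation was read as the change in fluorescence polarization.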

GST tagged IRAK4, sequence (Q9NWZ3 whole entry): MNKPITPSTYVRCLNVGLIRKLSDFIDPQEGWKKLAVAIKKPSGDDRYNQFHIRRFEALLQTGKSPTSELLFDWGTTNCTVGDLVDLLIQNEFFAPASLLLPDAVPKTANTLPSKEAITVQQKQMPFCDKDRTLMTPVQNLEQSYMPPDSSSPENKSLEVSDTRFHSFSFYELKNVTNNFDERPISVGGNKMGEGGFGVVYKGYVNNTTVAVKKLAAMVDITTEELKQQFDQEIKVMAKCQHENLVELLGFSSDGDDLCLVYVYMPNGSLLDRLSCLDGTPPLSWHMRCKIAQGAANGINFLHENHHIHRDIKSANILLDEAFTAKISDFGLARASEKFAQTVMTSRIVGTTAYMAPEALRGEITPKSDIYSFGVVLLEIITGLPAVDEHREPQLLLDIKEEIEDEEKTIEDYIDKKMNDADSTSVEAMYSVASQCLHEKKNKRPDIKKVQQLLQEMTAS

Row | SMILES | IC50
1 | N#Cc1ccccc1NC(=O)c1ccc2cnc(N[C@@H]3CCCC(F)(F)[C@@H]3N)nn12 [Example 136, 2-{[(1R,2R)-2-amino-3,3-difluorocyclohexyl]amino}-N-(2-cyanophenyl)pyrrolo[2,1-f][1,2,4]triazine-7-carboxamide trifluoroacetate] | 860 nM
2 | N[C@@H]1[C@H](Nc2ncc3ccc(C(=O)Nc4ccccc4C(F)(F)F)n3n2)CCCC1(F)F [Example 137, 2-{[(1R,2R)-2-amino-3,3-difluorocyclohexyl]amino}-N-[2-(trifluoromethyl)phenyl]-pyrrolo[2,1-f][1,2,4]triazine-7-carboxamide trifluoroacetate] | 2190 nM
3 | N[C@@H]1[C@H](Nc2ncc3ccc(C(=O)Nc4ccccc4Cl)n3n2)CCCC1(F)F [Example 138, 2-{[(1R,2R)-2-amino-3,3-difluorocyclohexyl]amino}-N-(2-chlorophenyl)pyrrolo[2,1-f][1,2,4]triazine-7-carboxamide trifluoroacetate] | 1640 nM
4 | N#Cc1sccc1NC(=O)c1ccc2cnc(N3CCC[C@@H](N)C3)nn12 [Example 141, 2-[(3R)-3-aminopiperidin-1-yl]-N-(2-cyanothiophen-3-yl)pyrrolo[2,1-f][1,2,4]triazine-7-carboxamide trifluoroacetate] | 26 nM
5 | N#Cc1cscc1NC(=O)c1ccc2cnc(N[C@@H]3CCCC[C@@H]3O)nn12 [Example 142, N-(4-cyanothiophen-3-yl)-2-{[(1R,2S)-2-hydroxycyclohexyl]amino}-pyrrolo[2,1-f][1,2,4]triazine-7-carboxamide trifluoroacetate] | 1590 nM

More lines, now with the values ahead:

Row | IC50 | SMILES
6 | 9 nM | N#Cc1cscc1NC(=O)c1ccc2cnc(N3CCC[C@H](N)C3)nn12 [Example 143, 2-[(3S)-3-aminopiperidin-1-yl]-N-(4-cyanothiophen-3-yl)pyrrolo[2,1-f][1,2,4]triazine-7-carboxamide trifluoroacetate]
7 | 18 nM | N#Cc1cscc1NC(=O)c1ccc2cnc(N3CCC[C@@H](N)C3)nn12 [Example 144, 2-[(3R)-3-aminopiperidin-1-yl]-N-(4-cyanothiophen-3-yl)pyrrolo[2,1-f][1,2,4]triazine-7-carboxamide trifluoroacetate]
8 | 3 nM | N#Cc1cscc1NC(=O)c1ccc2cnc(N[C@@H]3CCCNC3)nn12 [Example 145, N-(4-cyanothiophen-3-yl)-2-[(3R)-piperidin-3-ylamino]pyrrolo[2,1-f][1,2,4]triazine-7-carboxamide trifluoroacetate]
9 | 4 nM | N#Cc1sccc1NC(=O)c1ccc2cnc(N[C@@H]3CCCNC3)nn12 [Example 146, N-(2-cyanothiophen-3-yl)-2-[(3R)-piperidin-3-ylamino]pyrrolo[2,1-f][1,2,4]triazine-7-carboxamide trifluoroacetate]
10 | 396 nM | N#Cc1sccc1NC(=O)c1ccc2cnc(N[C@@H]3CCCC[C@@H]3O)nn12 [Example 147, N-(2-cyanothiophen-3-yl)-2-{[(1R,2S)-2-hydroxycyclohexyl]amino}-pyrrolo[2,1-f][1,2,4]triazine-7-carboxamide]
11 | 20 nM | Cn1cc(NC(=O)c2ccc3cnc(N4C[C@@H](N)C[C@@H](F)C4)nn23)c(C(F)(F)F)n1 [Example 148, 2-[(3S,5R)-3-amino-5-fluoropiperidin-1-yl]-N-[1-methyl-3-(trifluoromethyl)-1H-pyrazol-4-yl]pyrrolo[2,1-f][1,2,4]triazine-7-carboxamide]
12 | 0.8 nM | Cn1cc(NC(=O)c2ccc3cnc(N4C[C@H](N)C[C@@H](F)C4)nn23)c(C(F)(F)F)n1 [Example 149, 2-[(3R,5R)-3-amino-5-fluoropiperidin-1-yl]-N-[1-methyl-3-(trifluoromethyl)-1H-pyrazol-4-yl]pyrrolo[2,1-f][1,2,4]triazine-7-carboxamide trifluoroacetate]
